EP0609460A1, “PHARMACEUTICAL AGENT WITH A[…]” (KISLYAKOVA, Nonna Dmitrievna, priority 1992, dated 1994)

Columns and labels:
[1] = test system: hormone-susceptible DMBA-induced mammary gland cancer tumors; experiment: DMBA-induced hormone-susceptible mammary gland cancer in female rats, daily oral treatment; format: in vivo
mammalian cancer cells = conditions: in vitro, cited from earlier work
[2] = test system: DMBA-induced mammary gland cancer; conditions: cited from earlier work; for per cent of complete regression (disappearance of tumor) / per cent of partial decrease of tumors / tumors which did not regress at all / per cent of general regression of all tumors: after 30 days of administration; for per cent of general regression of all tumors: oil solutions, about 15 mg/kg
[3] = test system: induced mammary gland cancer; experiment: Induced mammary gland cancer in rats, long-term growing tumors with lost androgen susceptibility (Table 1); format: in vivo, White random-bred rats
[4] = test system: hormone-susceptible malignant tumors in women; experiment: Clinical use in volunteer patients; conditions: long-term (up to 2 months) administration in low doses
Protocol: The duration of the course - 2 months.
The daily dose (with the patient's weight about 70 kg) consisted of 3 g DL-valine in combination with 25 mg (0.025 g or 5 tablets) methyltestosterone. The daile dose was divided into 3 single ones (1 g DL-valine in warm milk enterally and 1 tablet of methyltestosterone sublingually 3 times daily - on an empty stomach and before meals; and 1 tablet of methyltestosterone without DL-valine sublingually 2 times in the middle of the day before meals). The patient strictly observed the diet with the excess of protein, limited amount of carbohydrates and complete exclusion of animal fat and phospholipids (fish hard-roe, egg yolk), using no more than 1-2 table spoonfuls of vegetable oil daily.

Compound | per cent of complete regression (disappearance of tumor) [2] | per cent of partial decrease of tumors [2] | tumors which did not regress at all [2] | per cent of general regression of all tumors [2] | further results
CC(C)C(N)C(=O)O (racemic) [DL-valine] |  |  |  |  | regression effect ([1]; DL-valine 275 mg/kg in the mixture): disappears completely; optimal dose of DL-valine ([1]; in the mixture): 550 mg/kg; damage of non-malignant cells (mammalian cancer cells): without any damage; cytotoxic effect on mammalian cancer cells (mammalian cancer cells; compared with other DL-amino acids): the strongest cytotoxic effect
C[C@@H]1C[C@@]2(C)[C@@H](CC[C@@H]3[C@@H]2CC[C@]2(C)[C@@H](O)CC[C@@H]32)CC1=O [2α -methyldihydrotestosterone] | 20% | 60% | 20% | 80% | 
CCC(=O)O[C@H]1CC[C@H]2[C@@H]3CC[C@H]4CC(=O)[C@H](C)C[C@]4(C)[C@H]3CC[C@]12C [2α-methyldihydrotestosterone propionate] | 50% | 20% | 30% | 70% | 
C[C@]12C=CC(=O)C=C1CC[C@@H]1[C@@H]2CC[C@@]2(C)[C@H]1CC[C@]2(C)O [methandrostenolone] |  |  |  |  | optimal dose of methandrostenolone in mixture with DL-valine ([3]; long-term growing tumors 10 cm³ or larger): 20-25 mg/kg body weight
C[C@]12CCC(=O)C=C1CC[C@@H]1[C@@H]2CC[C@@]2(C)[C@H]1CC[C@]2(C)O [methyltestosterone] |  |  |  |  | side effects [4]: weak manifestations of virilism; experimental therapeutic dose ([2]; administered orally): 25-40 mg/kg per day; minimal effective dose ([1]; Rattus norvegicus, po, without DL-valine, read-out: dose from which methyltestosterone alone causes regression): ≥ 25 mg/kg; antiblastic effect alone, without DL-valine ([1]; nontherapeutic doses 5-10 mg/kg): cause no regression or even inhibition of the growth; better dose of methyltestosterone in combination with DL-valine ([1]; tumor sizes over 6.0 cm³ up to 8-10 cm³): 10 mg/kilo body weight; dose of methyltestosterone giving the optimal antiblastic effect in combination with DL-valine ([1]; tumors of 4.0 cm³ to 6.0 cm³): 5 mg per kilo body weight
COc1cc(C=NNC(=O)c2ccncc2)ccc1O [phthivazid] |  |  |  |  | optimal dose of phthivazid ([3]; with DL-valine and methandrostenolone, found empirically): 45-50 mg/kg body weight
CCC(=O)O[C@H]1CC[C@H]2[C@@H]3CCC4=CC(=O)CC[C@]4(C)[C@H]3CC[C@]12C [testosterone propionate] | 10% | 30% | 60% | 40% | 
